Test results taken from patent US9944602B2, “Piperidinone herbicides” (E. I. DU PONT DE NEMOURS AND COMPANY, priority 2014, dated 2018).

What was measured:
Type in all cases: in vivo
[1] = tested on: pigweed (Amaranthus retroflexus); assay: Test A preemergence pigweed; conditions: 0 to 100 scale, 0 no effect, 100 complete control
In short: (§1)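 Scores reflect visual comparison with untreated controls after ~10 d in the greenhouse (0 none, 100 complete control). Treatment was a surfactant-containing non-phytotoxic solvent formulation, sprayed onto soil after seeding or onto seedlings at one to two leaves, 2–10 cm tall.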

[2] = tested on: pigweed (Amaranthus retroflexus); assay: Test A postemergence pigweed; conditions: 0 to 100 scale, 0 is no effect, 100 is complete control
In short: as §1

[3] = tested on: ragweed (common ragweed, Ambrosia elatior); assay: Test A preemergence ragweed; conditions: 0 to 100 scale, 0 no effect, 100 complete control
In short: as §1

[4] = tested on: barnyardgrass (Echinochloa crus-galli); assay: Test B flooded paddy test barnyardgrass; conditions: Table B, Flood, 250 g ai/ha, scale 0 to 100
In short: (§2)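 Once seedlings reached two leaves, pots were flooded 3 cm deep and treated via the paddy water, which remained at that level. Evaluation was visual, against controls, after 13 to 15 d under greenhouse conditions.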

[5] = tested on: blackgrass (Alopecurus myosuroides); assay: Test A postemergence blackgrass; conditions: 0 to 100 scale, 0 is no effect, 100 is complete control
In short: as §1

kochia (Kochia scoparia) [6] = assay: Test A postemergence kochia; conditions: 0 to 100 scale, 0 is no effect, 100 is complete control
In short: as §1

[7] = tested on: wheat (Triticum aestivum); assay: Test A postemergence wheat; conditions: 0 to 100 scale, 0 is no effect, 100 is complete control
In short: as §1

corn (Zea mays) = assay: Test A postemergence corn; conditions: 0 to 100 scale, 0 is no effect, 100 is complete control
In short: as §1

[8] = tested on: sedge, umbrella (small-flower umbrella sedge, Cyperus difformis); assay: Test B flooded paddy test sedge, umbrella; conditions: Table B, Flood, 250 g ai/ha, scale 0 to 100
In short: as §2

rice (Oryza sativa) = assay: Test B flooded paddy test rice; conditions: Table B, Flood, 250 g ai/ha, scale 0 to 100
In short: as §2

[9] = tested on: galium (catchweed bedstraw, Galium aparine); assay: Test A postemergence galium; conditions: 0 to 100 scale, 0 is no effect, 100 is complete control
In short: as §1

[10] = tested on: ducksalad (Heteranthera limosa); assay: Test B flooded paddy test ducksalad; conditions: Table B, Flood, 250 g ai/ha, scale 0 to 100
In short: as §2

[11] = tested on: ryegrass, Italian (Italian ryegrass, Lolium multiflorum); assay: Test A preemergence ryegrass, Italian; conditions: 0 to 100 scale, 0 no effect, 100 complete control
In short: as §1

[12] = tested on: foxtail, giant (giant foxtail, Setaria faberii); assay: Test A postemergence foxtail, giant; conditions: 0 to 100 scale, 0 is no effect, 100 is complete control
In short: as §1

[13] = tested on: ragweed (common ragweed, Ambrosia elatior); assay: Test A postemergence ragweed; conditions: 0 to 100 scale, 0 is no effect, 100 is complete control
In short: as §1

kochia (Kochia scoparia) [14] = assay: Test A preemergence kochia; conditions: 0 to 100 scale, 0 no effect, 100 complete control
In short: as §1

[15] = tested on: ryegrass, Italian (Italian ryegrass, Lolium multiflorum); assay: Test A postemergence ryegrass, Italian; conditions: 0 to 100 scale, 0 is no effect, 100 is complete control
In short: as §1

[16] = tested on: foxtail, giant (giant foxtail, Setaria faberii); assay: Test A preemergence foxtail, giant; conditions: 0 to 100 scale, 0 no effect, 100 complete control
In short: as §1

[17] = tested on: barnyardgrass (Echinochloa crus-galli); assay: Test A preemergence barnyardgrass; conditions: 0 to 100 scale, 0 no effect, 100 complete control
In short: as §1

[18] = tested on: barnyardgrass (Echinochloa crus-galli); assay: Test A postemergence barnyardgrass; conditions: 0 to 100 scale, 0 is no effect, 100 is complete control
In short: as §1

Row | Structure (SMILES) | Pigweed plant response rating ([1]; 125 g ai/ha) | Pigweed plant response rating ([1]; 500 g ai/ha) | Plant response rating, Pigweed ([2]; 125 g ai/ha) | Plant response rating, Pigweed ([2]; 500 g ai/ha) | Ragweed plant response rating ([3]; 125 g ai/ha) | Ragweed plant response rating ([3]; 500 g ai/ha) | Plant response rating [4] | Plant response rating, Blackgrass ([5]; 125 g ai/ha) | Plant response rating, Blackgrass ([5]; 500 g ai/ha) | Plant response rating, Kochia (kochia (Kochia scoparia) [6]; 125 g ai/ha) | Plant response rating, Kochia (kochia (Kochia scoparia) [6]; 500 g ai/ha) | Plant response rating, Wheat ([7]; 125 g ai/ha) | Plant response rating, Wheat ([7]; 500 g ai/ha) | Plant response rating, Corn (corn (Zea mays); 125 g ai/ha) | Plant response rating, Corn (corn (Zea mays); 500 g ai/ha) | Plant response rating [8] | Plant response rating (rice (Oryza sativa)) | Plant response rating, Galium ([9]; 125 g ai/ha) | Plant response rating, Galium ([9]; 500 g ai/ha) | Plant response rating [10] | further results
1 | O=C1NCCC(c2cccc(C(F)F)c2)C1C(=O)Nc1ccc(F)c(F)c1F (stereo not drawn) [Compound 47] | 0 | 0 | 0 | 0 | 0 | 0 | 0 | 0 | 0 | 0 | 0 | 0 | 30 | 0 | 0 | 0 | 0 | 0 | 0 | 50 | Ryegrass, Italian plant response rating ([11]; 125 g ai/ha): 0; Ryegrass, Italian plant response rating ([11]; 500 g ai/ha): 40; Plant response rating, Foxtail, Giant ([12]; 125 g ai/ha): 70; Plant response rating, Foxtail, Giant ([12]; 500 g ai/ha): 80; Plant response rating, Ragweed ([13]; 125 g ai/ha): 0; Plant response rating, Ragweed ([13]; 500 g ai/ha): 0; Kochia plant response rating (kochia (Kochia scoparia) [14]; 125 g ai/ha): 0; Kochia plant response rating (kochia (Kochia scoparia) [14]; 500 g ai/ha): 0; Plant response rating, Ryegrass, Italian ([15]; 125 g ai/ha): 0; Plant response rating, Ryegrass, Italian ([15]; 500 g ai/ha): 20; Foxtail, Giant plant response rating ([16]; 125 g ai/ha): 80; Foxtail, Giant plant response rating ([16]; 500 g ai/ha): 90; Barnyardgrass plant response rating ([17]; 125 g ai/ha): 70; Barnyardgrass plant response rating ([17]; 500 g ai/ha): 90; Plant response rating, Barnyardgrass ([18]; 125 g ai/ha): 50; Plant response rating, Barnyardgrass ([18]; 500 g ai/ha): 90
2 | O=C1NCCC(c2cccc(C(F)F)c2)C1C(=O)Nc1ccccc1F (stereo not drawn) [Compound 48] | 0 | 0 | 0 | 0 | 0 | 0 | 20 | 0 | 0 | 0 | 0 | 0 | 0 | 0 | 0 | 0 | 15 | 0 | 0 | 60 | Ryegrass, Italian plant response rating ([11]; 125 g ai/ha): 0; Ryegrass, Italian plant response rating ([11]; 500 g ai/ha): 0; Plant response rating, Foxtail, Giant ([12]; 125 g ai/ha): 0; Plant response rating, Foxtail, Giant ([12]; 500 g ai/ha): 30; Plant response rating, Ragweed ([13]; 125 g ai/ha): 0; Plant response rating, Ragweed ([13]; 500 g ai/ha): 0; Kochia plant response rating (kochia (Kochia scoparia) [14]; 125 g ai/ha): 0; Kochia plant response rating (kochia (Kochia scoparia) [14]; 500 g ai/ha): 0; Plant response rating, Ryegrass, Italian ([15]; 125 g ai/ha): 0; Plant response rating, Ryegrass, Italian ([15]; 500 g ai/ha): 0; Foxtail, Giant plant response rating ([16]; 125 g ai/ha): 70; Foxtail, Giant plant response rating ([16]; 500 g ai/ha): 90; Barnyardgrass plant response rating ([17]; 125 g ai/ha): 40; Barnyardgrass plant response rating ([17]; 500 g ai/ha): 90; Plant response rating, Barnyardgrass ([18]; 125 g ai/ha): 30; Plant response rating, Barnyardgrass ([18]; 500 g ai/ha): 80
3 | O=C(Nc1ccccc1C(F)(F)F)C1C(=O)N(C2CC2)CCC1c1ccc(F)cc1 (stereo not drawn) [Compound 50] | 0 | 0 | 0 | 0 | 0 | 0 | 0 | 0 | 0 | 0 | 0 | 0 | 0 | 0 | 0 | 0 | 0 | 0 | 0 | 0 | Ryegrass, Italian plant response rating ([11]; 125 g ai/ha): 0; Ryegrass, Italian plant response rating ([11]; 500 g ai/ha): 0; Plant response rating, Foxtail, Giant ([12]; 125 g ai/ha): 0; Plant response rating, Foxtail, Giant ([12]; 500 g ai/ha): 0; Plant response rating, Ragweed ([13]; 125 g ai/ha): 0; Plant response rating, Ragweed ([13]; 500 g ai/ha): 0; Kochia plant response rating (kochia (Kochia scoparia) [14]; 125 g ai/ha): 0; Kochia plant response rating (kochia (Kochia scoparia) [14]; 500 g ai/ha): 0; Plant response rating, Ryegrass, Italian ([15]; 125 g ai/ha): 0; Plant response rating, Ryegrass, Italian ([15]; 500 g ai/ha): 0; Foxtail, Giant plant response rating ([16]; 125 g ai/ha): 0; Foxtail, Giant plant response rating ([16]; 500 g ai/ha): 40; Barnyardgrass plant response rating ([17]; 125 g ai/ha): 0; Barnyardgrass plant response rating ([17]; 500 g ai/ha): 0; Plant response rating, Barnyardgrass ([18]; 125 g ai/ha): 0; Plant response rating, Barnyardgrass ([18]; 500 g ai/ha): 0
4 | O=C(Nc1ccccc1C(F)(F)F)C1C(=O)N(Cc2ccccc2)CCC1c1ccc(F)cc1 (stereo not drawn) [Compound 51] | 0 | 0 | 0 | 0 | 0 | 0 | 0 | 0 | 0 | 0 | 0 | 0 | 0 | 0 | 0 | 0 | 0 | 0 | 0 | 0 | Ryegrass, Italian plant response rating ([11]; 125 g ai/ha): 0; Ryegrass, Italian plant response rating ([11]; 500 g ai/ha): 0; Plant response rating, Foxtail, Giant ([12]; 125 g ai/ha): 0; Plant response rating, Foxtail, Giant ([12]; 500 g ai/ha): 0; Plant response rating, Ragweed ([13]; 125 g ai/ha): 0; Plant response rating, Ragweed ([13]; 500 g ai/ha): 0; Kochia plant response rating (kochia (Kochia scoparia) [14]; 125 g ai/ha): 0; Kochia plant response rating (kochia (Kochia scoparia) [14]; 500 g ai/ha): 0; Plant response rating, Ryegrass, Italian ([15]; 125 g ai/ha): 0; Plant response rating, Ryegrass, Italian ([15]; 500 g ai/ha): 0; Foxtail, Giant plant response rating ([16]; 125 g ai/ha): 0; Foxtail, Giant plant response rating ([16]; 500 g ai/ha): 0; Barnyardgrass plant response rating ([17]; 125 g ai/ha): 0; Barnyardgrass plant response rating ([17]; 500 g ai/ha): 0; Plant response rating, Barnyardgrass ([18]; 125 g ai/ha): 0; Plant response rating, Barnyardgrass ([18]; 500 g ai/ha): 0
5 | O=C1NCC[C@@H](c2ccc(C(F)(F)F)cc2)[C@@H]1C(=O)Nc1ccc(F)c(F)c1F [Compound 55] | 0 | 0 | 0 | 0 | 0 | 0 | 0 | 0 | 0 | 0 | 0 | 0 | 0 | 0 | 0 | 0 | 0 | 0 | 0 | 0 | Ryegrass, Italian plant response rating ([11]; 125 g ai/ha): 0; Ryegrass, Italian plant response rating ([11]; 500 g ai/ha): 0; Plant response rating, Foxtail, Giant ([12]; 125 g ai/ha): 0; Plant response rating, Foxtail, Giant ([12]; 500 g ai/ha): 0; Plant response rating, Ragweed ([13]; 125 g ai/ha): 0; Plant response rating, Ragweed ([13]; 500 g ai/ha): 0; Kochia plant response rating (kochia (Kochia scoparia) [14]; 125 g ai/ha): 0; Kochia plant response rating (kochia (Kochia scoparia) [14]; 500 g ai/ha): 0; Plant response rating, Ryegrass, Italian ([15]; 125 g ai/ha): 0; Plant response rating, Ryegrass, Italian ([15]; 500 g ai/ha): 0; Foxtail, Giant plant response rating ([16]; 125 g ai/ha): 0; Foxtail, Giant plant response rating ([16]; 500 g ai/ha): 0; Barnyardgrass plant response rating ([17]; 125 g ai/ha): 0; Barnyardgrass plant response rating ([17]; 500 g ai/ha): 0; Plant response rating, Barnyardgrass ([18]; 125 g ai/ha): 0; Plant response rating, Barnyardgrass ([18]; 500 g ai/ha): 0
